In patent US11154566B2, “Composition for preventing hair loss or promoting hair growth” (CK BIOTECH, priority 2017, dated 2021):
≈ marks a conversion by molar mass, not a printed value.

Test: Solubility of indirubin derivative in oils and surfactants (LC/MS/MS)
Type: physicochemical
Conditions: thermodynamic from solid, 72 hours at 37° C.
Protocol: To determine emulsion solution, solubility of indirubin derivative, embodiment 2 is measured in the several oil and surfactants. After enough amount of indirubin derivative powder made from manufacturing example 2 is putted into each oil or surfactants (1 ml), it was into vortexing 30 min. The equilibrium state was reached by shaking for 72 hours at 37° C. with 50 rpm speed in an incubator, then centrifuged at 16,100×g for 5 min. The supernatant was diluted with methanol and analyzed by LC/MS/MS. The kind of above oil or surfactants and measured solubility are shown below table 1.
‘Waters xevo TQ MS-ACQUITY UPLC System’ is used as an analyses equipment. ACQUITY UPLC® BEH (C18, 1.7 μm, 2.1×50 mm) column was used for analyses at room temperature. Mobile phase is used after filtration of deionized distilled water including 0.1% formic acid and acetonitrile including 0.1% formic acid (30:70, v/v) with […] membrane filter. The flow rate is 0.25 ml/min and it is analyzed by injection of 0.5 μl sample. There are LC/MS/MS conditions for Decursin analysis; Cone 38 V, Collison 32 V. Precursor ion and daughter ion are monitored 329 and 229 m/z, respectively.

- solubility at 72 h (aqueous with cosolvent or surfactant or cyclodextrin, in Kolliphor EL): 5400 µg/mL (≈ 15 mM)
- solubility at 72 h (aqueous with cosolvent or surfactant or cyclodextrin, in Tween 20): 4580 µg/mL (≈ 12.7 mM)
- solubility at 72 h (aqueous with cosolvent or surfactant or cyclodextrin, in Tween 80): 4920 µg/mL (≈ 13.7 mM)
- solubility at 72 h (oil or lipid, in Olive oil): 830 µg/mL (≈ 2.3 mM)
- solubility at 72 h (oil or lipid, in Sunflower oil): 1350 µg/mL (≈ 3.75 mM)
- solubility at 72 h (organic solvent or mixture, in PEG 400): 3100 µg/mL (≈ 8.61 mM)
- solubility at 72 h (organic solvent or mixture, in Propylene glycol): 250 µg/mL (≈ 0.694 mM)
- solubility at 72 h (organic solvent or mixture, in Transcutor P): 1150 µg/mL (≈ 3.19 mM)
SMILES: CO/N=C1/C(=C2/C(=O)Nc3cc(Cl)c(Cl)cc32)Nc2ccccc21 [Embodiment A3051, 5,6-dichloroindirubin-3′-methoxime]
